Test results as given in patent publication US10695337B2, “Piperidin-4-yl azetidine derivatives as JAK1 inhibitors” (Incyte Corporation, priority 2010, dated 2020).

Target: human JAK1 (a.a. 837-1142)
Experiment: In vitro JAK kinase assay (HTRF, phosphorylation of a biotinylated peptide), JAK1
Type: biochemical
Settings: measured at 1 mM ATP; JAK2 IC50 / JAK1 IC50
How it was run: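 Phosphorylation of a biotinylated peptide by purified His-tagged JAK catalytic domains (insect-cell baculovirus expression) ran 1 hr at room temperature. After stopping with EDTA, Eu-Py20 and SA-APC were bound for 40 minutes and HTRF measured.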

Compound	IC50 Ratio JAK2/JAK1
N#CCC1(n2ccc(-c3ncnc4[nH]ccc34)c2)CN(C2CCN(C(=O)c3cc(OC(F)(F)F)ccc3F)CC2)C1 [Example 269]	5.0
N#CCC1(n2cc(-c3ncnc4[nH]ccc34)cn2)CN(C2CCN(C(=O)c3cc4ccccc4s3)CC2)C1 [Example 90, {1-[1-(1-benzothien-2-ylcarbonyl)piperidin-4-yl]-3-[4-(7H-pyrrolo[2,3-d]pyrimidin-4-yl)-1H-pyrazol-1-yl]azetidin-3-yl}acetonitrile]	1.5
COc1ccccc1NC(=O)N1CCC(N2CC(CC#N)(n3ccc(-c4ncnc5[nH]ccc45)c3)C2)CC1 [Example 288, 4-{3-(cyanomethyl)-3-[3-(7H-pyrrolo[2,3-d]pyrimidin-4-yl)-1H-pyrrol-1-yl]azetidin-1-yl}-N-(2-methoxyphenyl)piperidine-1-carboxamide]	9.0
N#CCC1(n2cc(-c3ncnc4[nH]ccc34)cn2)CN(C2CCN(Cc3cccc(Cl)c3Cl)CC2)C1 [Example 219, {1-[1-(2,3-dichlorobenzyl)piperidin-4-yl]-3-[4-(7H-pyrrolo[2,3-d]pyrimidin-4-yl)-1H-pyrazol-1-yl]azetidin-3-yl}acetonitrile]	2.4
N#CCC1(n2cc(-c3ncnc4[nH]ccc34)cn2)CN(C2CCN(C(=O)c3c(F)cc(F)cc3F)CC2)C1 [Example 49, {3-[4-(7H-pyrrolo[2,3-d]pyrimidin-4-yl)-1H-pyrazol-1-yl]-1-[1-(2,4,6-trifluorobenzoyl)piperidin-4-yl]azetidin-3-yl}acetonitrile]	6.5
N#CCC1(n2cc(-c3ncnc4[nH]ccc34)cn2)CN(C2CCN(C(=O)c3ccc(-c4ccc5ccncc5c4)c(F)c3)CC2)C1 [Example 133, {1-[1-(3-fluoro-4-isoquinolin-7-ylbenzoyl)piperidin-4-yl]-3-[4-(7H-pyrrolo[2,3-d]pyrimidin-4-yl)-1H-pyrazol-1-yl]azetidin-3-yl} acetonitrile]	7.9
CC(C)COC(=O)N1CCC(N2CC(CC#N)(n3cc(-c4ncnc5[nH]ccc45)cn3)C2)CC1 [Example 390, isobutyl 4-{3-(cyanomethyl)-3-[4-(7H-pyrrolo[2,3-d]pyrimidin-4-yl)-1H-pyrazol-1-yl]azetidin-1-yl}piperidine-1-carboxylate]	8.3
Cc1ccccc1NC(=O)N1CCC(N2CC(CC#N)(n3cc(-c4ncnc5[nH]ccc45)cn3)C2)CC1 [Example 185, 4-{3-(cyanomethyl)-3-[4-(7H-pyrrolo[2,3-d]pyrimidin-4-yl)-1H-pyrazol-1-yl]azetidin-1-yl}-N-(2-methylphenyl) piperidine-1-carboxamide]	9.5
N#CCC1(n2cc(-c3ncnc4[nH]ccc34)cn2)CN(C2CCN(C(=O)c3cc(F)cc(F)c3)CC2)C1 [Example 3, {1-[1-(3,5-difluorobenzoyl)piperidin-4-yl]-3-[4-(7H-pyrrolo[2,3-d]pyrimidin-4-yl)-1H-pyrazol-1-yl]azetidin-3-yl}acetonitrile]	11.0
N#CCC1(n2ccc(-c3ncnc4[nH]ccc34)c2)CN(C2CCN(C(=O)c3cccc(C#N)c3)CC2)C1 [Example 262, 3-[(4-{3-(cyanomethyl)-3-[3-(7H-pyrrolo[2,3-d]pyrimidin-4-yl)-1H-pyrrol-1-yl]azetidin-1-yl}piperidin-1-yl)carbonyl]benzonitrile]	7.4
N#CCC1(n2ccc(-c3ncnc4[nH]ccc34)c2)CN(C2CCN(C(=O)Nc3ncccc3C(F)(F)F)CC2)C1 [Example 290, 4-{3-(cyanomethyl)-3-[3-(7H-pyrrolo[2,3-d]pyrimidin-4-yl)-1H-pyrrol-1-yl]azetidin-1-yl}-N-[3-(trifluoromethyl)pyridin-2-yl]piperidine-1-carboxamide]	3.9
COc1cc(C(=O)N2CCC(N3CC(CC#N)(n4cc(-c5ncnc6[nH]ccc56)cn4)C3)CC2)cc(Cl)n1 [Example 37, {1-[1-(2-chloro-6-methoxyisonicotinoyl)piperidin-4-yl]-3-[4-(7H-pyrrolo[2,3-d]pyrimidin-4-yl)-1H-pyrazol-1-yl]azetidin-3-yl}acetonitrile]	2.1
N#CCC1(n2cc(-c3ncnc4[nH]ccc34)cn2)CN(C2CCN(C(=O)OCC3CCC3)CC2)C1 [Example 387, Cyclobutylmethyl 4-{3-(cyanomethyl)-3-[4-(7H-pyrrolo[2,3-d]pyrimidin-4-yl)-1H-pyrazol-1-yl]azetidin-1-yl}piperidine-1-carboxylate]	9.7
N#CCC1(n2cc(-c3ccnc4[nH]ccc34)cn2)CN(C2CCN(C(=O)c3ccc(C#N)cc3F)CC2)C1 [Example 295, 4-[(4-{3-(cyanomethyl)-3-[4-(1H-pyrrolo[2,3-b]pyridin-4-yl)-1H-pyrazol-1-yl]azetidin-1-yl}piperidin-1-yl)cabonyl]-3-fluorobenzonitrile]	5.1
N#CCC1(n2cc(-c3ncnc4[nH]ccc34)cn2)CN(C2CCN(C(=O)c3ccccc3F)CC2)C1 [Example 67, {1-[1-(2-fluorobenzoyl)piperidin-4-yl]-3-[4-(7H-pyrrolo[2,3-d]pyrimidin-4-yl)-1H-pyrazol-1-yl]azetidin-3-yl}acetonitrile]	4.7
N#CCC1(n2cc(-c3ncnc4[nH]ccc34)cn2)CN(C2CCN(C(=O)c3cc4ccc(C(F)(F)F)cc4s3)CC2)C1 [Example 94, [3-[4-(7H-pyrrolo[2,3-d]pyrimidin-4-yl)-1H-pyrazol-1-yl]-1-(1-{[6-(trifluoromethyl)-1-benzothien-2-yl]carbonyl}piperidin-4-yl)azetidin-3-yl]acetonitrile]	1.0
N#CCC1(n2ccc(-c3ncnc4[nH]ccc34)c2)CN(C2CCN(C(=O)c3cccc(C(F)(F)F)c3)CC2)C1 [Example 268, (3-[3-(7H-pyrrolo[2,3-d]pyrimidin-4-yl)-1H-pyrrol-1-yl]-1-{1-[3-(trifluoromethyl)benzoyl]piperidin-4-yl}azetidin-3-yl)acetonitrile]	3.1
N#CCC1(n2cc(-c3ncnc4[nH]ccc34)cn2)CN(C2CCN(C(=O)c3ccc(-c4nc5ccccc5o4)c(F)c3)CC2)C1 [Example 137, {1-{1-[4-(1,3-benzoxazol-2-yl)-3-fluorobenzoyl]piperidin-4-yl}-3-[4-(7H-pyrrolo[2,3-d]pyrimidin-4-yl)-1H-pyrazol-1-yl]azetidin-3-yl} acetonitrile]	6.0
N#CCC1(n2cc(-c3ncnc4[nH]ccc34)cn2)CN(C2CCN(C(=O)c3ccc(-c4cccc(C#N)c4)c(F)c3)CC2)C1 [Example 125, 4′-[(4-{3-(cyanomethyl)-3-[4-(7H-pyrrolo[2,3-d]pyrimidin-4-yl)-1H-pyrazol-1-yl]azetidin-1-yl}piperidin-1-yl)carbonyl]-2′-fluorobiphenyl-3-carbonitrile]	8.1
Cc1nc(S(=O)(=O)N2CCC(N3CC(CC#N)(n4cc(-c5ncnc6[nH]ccc56)cn4)C3)CC2)cn1C [Example 259, {1-{1-[(1,2-dimethyl-1H-imidazol-4-yl)sulfonyl]piperidin-4-yl}-3-[4-(7H-pyrrolo[2,3-d]pyrimidin-4-yl)-1H-pyrazol-1-yl]azetidin-3-yl}acetonitrile]	4.6
N#CCC1(n2cc(-c3ncnc4[nH]ccc34)cn2)CN(C2CCN(C(=O)c3ccc(F)cc3F)CC2)C1 [Example 42, {1-[1-(2,4-difluorobenzoyl)piperidin-4-yl]-3-[4-(7H-pyrrolo[2,3-d]pyrimidin-4-yl)-1H-pyrazol-1-yl]azetidin-3-yl}acetonitrile]	6.7
N#CCC1(n2cc(-c3ncnc4[nH]ccc34)cn2)CN(C2CCN(C(=O)c3ccc(C#N)cc3)CC2)C1 [Example 12, 4-[(4-{3-(cyanomethyl)-3-[4-(7H-pyrrolo[2,3-d]pyrimidin-4-yl)-1H-pyrazol-1-yl]azetidin-1-yl}piperidin-1-yl)carbonyl]benzonitrile]	5.2
N#CCC1(n2cc(-c3ncnc4[nH]ccc34)cn2)CN(C2CCN(C(=O)C3CCC(F)(F)CC3)CC2)C1 [Example 100, {1-{1-[(4,4-difluorocyclohexyl)carbonyl]piperidin-4-yl}-3-[4-(7H-pyrrolo[2,3-d]pyrimidin-4-yl)-1H-pyrazol-1-yl]azetidin-3-yl}acetonitrile]	6.6
N#CCC1(n2cc(-c3ncnc4[nH]ccc34)cn2)CN(C2CC3CCC(C2)N3C(=O)c2ccnc(C(F)(F)F)c2F)C1 (stereo not drawn) [Example 142, {1-{8-[3-fluoro-2-(trifluoromethyl)isonicotinoyl]-8-azabicyclo[3.2.1]oct-3-yl}-3-[4-(7H-pyrrolo[2,3-d]pyrimidin-4-yl)-1H-pyrazol-1-yl]azetidin-3-yl}acetonitrile]	7.4
N#CCC1(n2cc(-c3ncnc4[nH]ccc34)cn2)CN(C2CCN(C(=O)c3cc(F)cc(Cl)c3)CC2)C1 [Example 28, {1-[1-(3-chloro-5-fluorobenzoyl)piperidin-4-yl]-3-[4-(7H-pyrrolo[2,3-d]pyrimidin-4-yl)-1H-pyrazol-1-yl]azetidin-3-yl}acetonitrile]	8.5
N#CCC1(n2cc(-c3c(C#N)cnc4[nH]ccc34)cn2)CN(C2CCN(C(=O)c3c(F)cc(C#N)cc3F)CC2)C1 [Example 340, 4-{1-[1-[1-(4-cyano-2,6-difluorobenzoyl)piperidin-4-yl]-3-(cyanomethyl)azetidin-3-yl]-1H-pyrazol-4-yl}-1H-pyrrolo[2,3-b]pyridine-5-carbonitrile]	1.4
Cc1nc(F)ccc1NC(=O)N1CCC(N2CC(CC#N)(n3cc(-c4ncnc5[nH]ccc45)cn3)C2)CC1 [Example 199, 4-{3-(cyanomethyl)-3-[4-(7H-pyrrolo[2,3-d]pyrimidin-4-yl)-1H-pyrazol-1-yl]azetidin-1-yl}-N-(6-fluoro-2-methylpyridin-3-yl)piperidine-1-carboxamide]	10.0
